According to patent US9145354B2, “Pharmaceutical compounds” (priority 2011, dated 2015):
Read-outs that look alike come from different tables or passages of the source.

Experiments:
[1] = Replicon Assay (Example B), Alamar Blue cytotoxicity CC50; format: cell-based; conditions: human, lower value of the cell pair
Description: (§1) Thus, Huh-7 cells persistently infected with an HCV-RNA construct (Bartenschlager, R. Hepatitis C replicons: potential role for drug development. Nature Rev. Drug Discov. 1, 911-916 (2002)) comprising: 5′ and 3′ non-translated regions (NTR); the non-structural genes NS3 to NS5b; as well as the G418 drug resistance gene, neomycin, (for selection of cells carrying HCV replicon RNA) fused to the firefly Luciferase reporter gene (pFKI3889Iuc-ubi-neo/NS3-3′/ET) were used to determine the cell based antiviral activity of compounds using luciferase activity as an indirect readout of HCV RNA load. In this assay […] huh-7 cells persistently infected with the HCV subgenomic replicon construct above were plated/well in a 96 well tissue culture plate. The cells were allowed to attach overnight in DMEM medium supplemented with 10% FBS 1% NEAA, and 250 μg/ml gentamicin. The following day the medium was replaced with 200 μl/well of fresh medium as described above lacking gentamicin. Semilog dilutions of compounds in medium were then added to triplicate wells (non-edge) of the cultured cells to give a 0.1% DMSO final concentration. Plates were then incubated at 37° C. in an atmosphere of 5% CO2 and air for 72 h. […] The plate was then read at 535 nm (excitation) and 590 nm (emission) on a SpectraMax Gemini reader (Molecular Devices) to determine the number of viable cells by measuring the conversion of rezasurin (Alamar blue) to resorufin in response to mitochondrial activity. In order to determine the antiviral effect of these compounds EC50 values were determined by measuring the luciferase activity of the cells. Alamar blue solution was removed from the wells and replaced with 100 μl/well of medium along with 100 μl/well of Bright-Glo reagent and incubated at room temperature for 5 minutes before transferring 100 μl/well to a white bottom 96 well plate to read in a luminometer as described in the Bright-Glo Luciferase Assay System protocol (promega).

[2] = biological target: full length NS3/4a (Hepatitis C virus genotype 1b (isolate BK) (HCV), UniProt P26663); test: NS3 Protease Assay (Example A), FRET-based; format: biochemical
How it was run: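 Full-length NS3/4a, made in-house, with an NS4A/B-derived peptide substrate carrying QXL520 quencher and 5-FAMsp fluorophore. Buffer 50 mM Tris pH8, 20 mM DTT, 1% CHAPS, 10% glycerol, 5% DMSO. Fluorescence followed 30 min at room temperature; IC50 from initial rates of replicate curves.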

[3] = system: HCV subgenomic replicon in Huh-7 cells; test: Replicon Assay (Example B), luciferase readout EC50; format: cell-based; conditions: Hepatitis C virus
Experimental: The activities of compounds of the invention against HCV in a cellular environment were analysed using a replicon assay as described below.
as §1

[4] = HCV NS3 protease assay, full length NS3/4a, read-out: Assay A IC50 (μM) average
[5] = Huh-7, replicon assay, luciferase readout, upper value of the cell pair, read-out: Assay B EC50
[6] = read-out: IC50 against the protease activity of the full length NS3/4a

Sequence of full length NS3/4a (P26663 1027-1657): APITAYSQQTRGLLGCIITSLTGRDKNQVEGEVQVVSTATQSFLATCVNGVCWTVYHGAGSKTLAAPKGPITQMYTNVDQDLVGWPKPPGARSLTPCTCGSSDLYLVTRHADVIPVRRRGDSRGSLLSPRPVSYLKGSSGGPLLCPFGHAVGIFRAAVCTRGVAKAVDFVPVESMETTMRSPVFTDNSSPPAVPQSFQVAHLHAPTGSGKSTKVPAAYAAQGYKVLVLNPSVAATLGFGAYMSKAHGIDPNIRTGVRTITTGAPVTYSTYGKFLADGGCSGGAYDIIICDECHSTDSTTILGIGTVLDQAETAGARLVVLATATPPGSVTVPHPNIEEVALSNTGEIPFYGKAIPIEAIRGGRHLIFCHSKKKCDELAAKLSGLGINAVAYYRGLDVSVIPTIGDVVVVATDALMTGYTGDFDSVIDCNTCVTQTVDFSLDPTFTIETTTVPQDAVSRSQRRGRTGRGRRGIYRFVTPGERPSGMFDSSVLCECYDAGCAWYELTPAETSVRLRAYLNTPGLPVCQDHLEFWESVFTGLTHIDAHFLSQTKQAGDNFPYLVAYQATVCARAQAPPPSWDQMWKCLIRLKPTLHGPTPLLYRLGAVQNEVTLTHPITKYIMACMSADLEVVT

Row | Compound | CC50 at 72 h [1] | IC50 [2, 4] | EC50 [3, 5] | IC50 [2, 6] | EC50 ([3]; Huh-7, pre-determined EC50 used to set concentrations in combination studies, read-out: EC50 (replicon)) | inhibition at 0.01 µM ([2]; @ 0.01 uM)
1 | CC[C@@H](NCCC(N)=O)c1ccc(Cl)c(C(=O)c2ccc(N)nc2)c1F [Example 180, 3-{[(1R)-1-{3-[(6-Aminopyridin-3-yl)carbonyl]-4-chloro-2-fluorophenyl}propyl]amino}propanamide] | > 3000 nM | 0.14 µM | 270 nM |  |  | 
2 | C[C@@H](CC(N)=O)N[C@@H](c1ccc(Cl)c(C(=O)c2ccc(N)c(Cl)c2)c1F)C1CC1 [Example 261, (3S)-3-{[(R)-{3-[(4-amino-3-chlorophenyl)carbonyl]-4-chloro-2-fluorophenyl}(cyclopropyl)methyl]amino}butanamide] | > 1000 nM | 0.16 µM | 9.1 nM | < 1 µM |  | 
3 | CC[C@@H](N[C@@H](C)CC(N)=O)c1ccc(OC)c(C(=O)c2ccccc2)c1F [Example 152, (3S)-3-{[(1R)-1-(3-benzoyl-2-fluoro-4-methoxyphenyl)propyl]-amino}butanamide] | > 10000 nM | 0.051 µM | 66 nM |  |  | 
4 | CC[C@@H](N[C@@H](C)CC(N)=O)c1ccc(Cl)c(C(=O)c2ccc(F)c(F)c2)c1F [Example 90, (3S)-3-{[(1R)-1-{4-chloro-3-[(3,4-difluorophenyl)carbonyl]-2-fluorophenyl}propyl]amino}-butanamide] | > 3000 nM | 0.13 µM | 380 nM |  |  | 
5 | CC[C@@H](N[C@@H](C)CC(N)=O)c1ccc(C)c(C(=O)c2ccccc2)c1F [Example 150, (3S)-3-{[(1R)-1-(3-benzoyl-2-fluoro-4-methylphenyl)propyl]-amino}butanamide] | > 10000 nM | 0.068 µM | 310 nM |  |  | 
6 | C[C@@H](CC(N)=O)N[C@@H](c1ccc(Cl)c(C(=O)c2ccccc2)c1F)C1CC1 [Example 103, (3S)-3-{[(R)-(3-benzoyl-4-chloro-2-fluorophenyl)-(cyclopropyl)-methyl]-amino}-butanamide] | > 3000 nM | 0.077 µM | 5.8 nM | < 1 µM |  | 
7 | CCC(NC(C)(C)CO)c1ccc(Cl)c(C(=O)c2ccccc2)c1F (stereo not shown) [Example 179, 2-{[1-(3-benzoyl-4-chloro-2-fluorophenyl)-propyl]amino}-2-methylpropan-1-ol] | > 3000 nM | 0.063 µM | 300 nM |  |  | 
8 | CC[C@@H](N[C@@H](C)CC(N)=O)c1ccc(Cl)c(C(=O)c2ccc(-n3cccn3)nc2)c1F [Example 139, (3S)-3-{[(1R)-1-(4-chloro-2-fluoro-3-{[6-(1H-pyrazol-1-yl)pyridin-3-yl]carbonyl}phenyl)-propyl]amino}-butanamide] | > 3000 nM | 0.33 µM | 420 nM | < 1 µM |  | 
9 | CC[C@@H](N[C@@H](C)CC(N)=O)c1ccc(Cl)c(C(=O)c2ccc(O)cc2)c1F [Example 230, (3S)-3-{[(1R)-1-{4-chloro-2-fluoro-3-[(4-hydroxyphenyl)carbonyl]phenyl}propyl]amino} butanamide] | > 3000 nM | 0.55 µM | 37 nM | < 1 µM |  | 
10 | CC[C@@H](N[C@@H](C)CC(N)=O)c1ccc(Cl)c(C(=O)c2ccc(=O)[nH]c2)c1F [Example 147, (3S)-3-{[(1R)-1-{4-chloro-2-fluoro-3-[(6-oxo-1,6-dihydropyridin-3-yl)carbonyl]-phenyl}propyl]amino}-butanamide] | > 10000 nM | 0.39 µM | 2100 nM |  |  | 
11 | CC[C@@H](N[C@@H](C)CC(N)=O)c1ccc(Cl)c(C(=O)c2cc(C)c(N)cn2)c1F [Example 239, (3S)-3-{[(1R)-1-{3-[(5-amino-4-methylpyridin-2-yl)carbonyl]-4-chloro-2-fluorophenyl}propyl]amino} butanamide] | > 1000 nM | 0.5 µM | 38 nM |  |  | 
12 | C[C@@H](CC(N)=O)N[C@@H](c1ccc(Cl)c(C(=O)c2ccc(N)c(C#N)c2)c1F)C1CC1 [Example 255, (3S)-3-{[(R)-{3-[(4-amino-3-cyanophenyl)carbonyl]-4-chloro-2-fluorophenyl}(cyclopropyl)methyl]amino}butanamide] | > 1000 nM | 0.24 µM | 27 nM |  |  | 
13 | CC[C@@H](N[C@@H](C)CC(N)=O)c1ccc(Cl)c(C(=O)c2ccc(N)nc2)c1F [Example 81, (3S)-3-{[(1R)-1-{3-[(6-aminopyridin-3-yl)carbonyl]-4-chloro-2-fluorophenyl}propyl]-amino}butanamide] | > 3000 nM | 0.22 µM | 18 nM |  | 20 nM | 
14 | CC[C@@H](N[C@@H](C)CC(N)=O)c1ccc(Cl)c(C(=O)c2cc(C)on2)c1F [Example 110, (3S)-3-{[(1R)-1-{4-chloro-2-fluoro-3-[(5-methyl-1,2-oxazol-3-yl)carbonyl]-phenyl}-propyl]amino}-butanamide] | > 3000 nM | 0.17 µM | 510 nM |  |  | 
15 | CC[C@@H](N[C@@H](C)CC(N)=O)c1ccc(Cl)c(C(=O)c2ccncc2)c1F [Example 106, (3S)-3-{[(1R)-1-{4-chloro-2-fluoro-3-[(pyridin-4-yl)carbonyl]phenyl}-propyl]amino}butanamide] | > 3000 nM | 0.11 µM | 57 nM | < 1 µM |  | 
16 | CC[C@@H](N[C@@H](C)CC(=O)NCCN)c1ccc(Cl)c(C(=O)c2ccccc2)c1F [Example 88, (3S)-N-(2-aminoethyl)-3-{[(1R)-1-(3-benzoyl-4-chloro-2-fluorophenyl)propyl]-amino}butanamide] | > 3000 nM |  | 45 nM |  |  | 52%
17 | CC[C@@H](N[C@@H](C)CC(N)=O)c1ccc(Cl)c(C(=O)c2cc[n+]([O-])cc2)c1F [Example 142, (S)-3-{(R)-1-[4-Chloro-2-fluoro-3-(1-oxy-pyridine-4-carbonyl)-phenyl]-propylamino}-butyramide] | > 3000 nM | 0.3 µM | > 3000 nM | < 1 µM |  | 
18 | CC[C@@H](N[C@@H](C)CC(N)=O)c1ccc(Cl)c(C(=O)c2ccc(N)c(C)c2)c1F [Example 259, (3S)-3-{[(1R)-1-{3-[(4-amino-3-methylphenyl)carbonyl]-4-chloro-2-fluorophenyl}propyl]amino} butanamide] | > 1000 nM | 0.11 µM | 21 nM | < 1 µM |  | 
19 | CC[C@@H](N[C@@H](C)CC(N)=O)c1ccc(Cl)c(C(=O)c2ccc3c(c2)OCC(=O)N3)c1F [Example 247, (3S)-3-{[(1R)-1-{4-chloro-2-fluoro-3-[(3-oxo-3,4-dihydro-2H-1,4-benzoxazin-7-yl)carbonyl]phenyl}propyl]amino}butanamide] | > 1000 nM | 0.29 µM | 21 nM | < 1 µM |  | 
20 | CC[C@@H](NC(C)(C)CC(N)=O)c1ccc(Cl)c(C(=O)c2ccc(N)nc2)c1F [Example 250, 3-{[(1R)-1-{3-[(6-aminopyridin-3-yl)carbonyl]-4-chloro-2-fluorophenyl}propyl]amino}-3-methylbutanamide] | > 1000 nM | 0.095 µM | 29 nM |  |  | 
21 | CC[C@@H](CC(N)=O)N[C@H](CC)c1ccc(Cl)c(C(=O)c2ccc(N)nc2)c1F [Example 225, (3S)-3-{[(1R)-1-{3-[(6-aminopyridin-3-yl)carbonyl]-4-chloro-2-fluorophenyl}propyl]amino} pentanamide] | > 3000 nM | 0.35 µM | 28 nM |  |  | 
22 | CC[C@@H](N[C@@H](C)CC(N)=O)c1ccc(Cl)c(C(=O)c2ccc3c(n2)NC(=O)CO3)c1F [Example 229, (3S)-3-{[(1R)-1-[4-chloro-2-fluoro-3-({3-oxo-2H,3H,4H-pyrido[3,2-b][1,4]oxazin-6-yl}carbonyl)phenyl]propyl]amino}butanamide] | > 3000 nM | 1.1 µM | 1900 nM | 1 to 5 µM |  | 
23 | CC[C@@H](N[C@@H](C)CC(N)=O)c1ccc(Cl)c(C(=O)c2ccc[n+]([O-])c2)c1F [Example 116, (S)-3-{(R)-1-[4-Chloro-2-fluoro-3-(1-oxy-pyridine-3-carbonyl)-phenyl]-propylamino}-butyramide] | > 3000 nM | 0.81 µM | > 3000 nM |  |  | 
